Test results taken from patent US10189809B2, “SGC stimulators” (Ironwood Pharmaceuticals, Inc., priority 2010, dated 2019).
Where two headings read alike, the source gives them in different places.

Key:
[1] = molecular target: T1, Human soluble guanylate cyclase enzyme (hsGC) (Homo sapiens (Human), UniProt Q02108+Q02153); assay: Purified human sGC enzyme activity assay; assay type: biochemical; conditions: for sGC Enzyme (specific activity at 30 μM) / sGC Enzyme (fold increase at 30 μM without SNP) / sGC Enzyme (fold increase at 30 μM): 30 μM compound
T1 sequence (Q02153 whole entry): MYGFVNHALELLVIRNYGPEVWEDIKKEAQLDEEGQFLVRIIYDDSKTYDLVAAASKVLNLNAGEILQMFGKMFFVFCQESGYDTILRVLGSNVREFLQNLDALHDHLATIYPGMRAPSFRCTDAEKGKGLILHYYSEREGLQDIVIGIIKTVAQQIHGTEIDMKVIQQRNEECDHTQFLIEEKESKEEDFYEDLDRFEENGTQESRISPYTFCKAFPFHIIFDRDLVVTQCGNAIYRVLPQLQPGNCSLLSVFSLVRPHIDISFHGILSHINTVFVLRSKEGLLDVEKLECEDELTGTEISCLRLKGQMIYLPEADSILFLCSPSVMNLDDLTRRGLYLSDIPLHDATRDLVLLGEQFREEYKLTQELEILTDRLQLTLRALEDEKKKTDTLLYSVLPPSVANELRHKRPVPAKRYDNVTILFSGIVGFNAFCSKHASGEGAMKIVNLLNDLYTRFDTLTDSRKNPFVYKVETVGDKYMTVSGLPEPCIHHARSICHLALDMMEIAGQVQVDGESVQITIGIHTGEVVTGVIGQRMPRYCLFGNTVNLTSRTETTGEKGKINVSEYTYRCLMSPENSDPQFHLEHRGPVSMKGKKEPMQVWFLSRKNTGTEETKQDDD
T1 sequence (Q02108 whole entry): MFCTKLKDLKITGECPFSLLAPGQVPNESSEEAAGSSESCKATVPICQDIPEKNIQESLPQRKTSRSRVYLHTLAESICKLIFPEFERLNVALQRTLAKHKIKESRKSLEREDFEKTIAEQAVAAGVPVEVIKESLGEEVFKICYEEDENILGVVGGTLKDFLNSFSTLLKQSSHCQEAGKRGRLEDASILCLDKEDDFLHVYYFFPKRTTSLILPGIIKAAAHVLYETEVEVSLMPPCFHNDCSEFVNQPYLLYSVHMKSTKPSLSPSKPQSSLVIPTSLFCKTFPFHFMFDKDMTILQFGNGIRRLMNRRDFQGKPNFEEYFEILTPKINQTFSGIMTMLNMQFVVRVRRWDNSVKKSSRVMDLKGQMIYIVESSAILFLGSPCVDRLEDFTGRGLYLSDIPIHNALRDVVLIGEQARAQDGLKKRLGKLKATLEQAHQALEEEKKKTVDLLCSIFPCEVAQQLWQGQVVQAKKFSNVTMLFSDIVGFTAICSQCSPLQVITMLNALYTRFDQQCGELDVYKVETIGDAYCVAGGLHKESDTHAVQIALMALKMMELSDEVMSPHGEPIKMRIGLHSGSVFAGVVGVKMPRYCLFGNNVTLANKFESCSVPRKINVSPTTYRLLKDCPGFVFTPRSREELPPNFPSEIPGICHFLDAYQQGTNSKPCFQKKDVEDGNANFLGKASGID
How it was run: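 Purified human sGC (5 ng) incubated 30 min at 37° C with compound at 10 or 30 μM final in pH 8.0 Tris with 300 μM GTP, 2 mM MgCl2, 2 mM DTT and 1 mM IBMX, then stopped with cold methanol. cGMP quantified against a standard curve. Specific activity (nmol cGMP/mg sGC/min) expressed as fold-change over DMSO control.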

[2] = molecular target: T1, Human soluble guanylate cyclase enzyme (hsGC); assay: Purified human sGC enzyme synergy assay in the presence of 1 μM sodium nitroprusside (SNP); assay type: biochemical; conditions: for sGC Enzyme (fold increase at 10 μM with SNP): 10 μM compound; for sGC Enzyme (fold increase at 30 μM with SNP): 30 μM compound
Protocol: Human soluble guanylate cyclase enzyme (hsGC) obtained from Enzo Inc. (P/N: ALX-201-177) was used to evaluate the activity of test compounds. The assay reactions contained 0.1 M Tris (pH 8.0), 0.5 mg/mL BSA (pH 8.0), 2 mM DTT, 2 mM MgCl2, 300 μM GTP, 1 mM 3-isobutyl-1-methylxanthine (IBMX) and 5 ng human soluble guanylate cyclase enzyme. Test compounds in DMSO were then added (2 μL, 10 or 30 μM final concentration) and incubated (200 μL, 96-well plate format) at 37° C. for 30 minutes. The controls were carried out using 2 μL DMSO. After the 30 minute incubation, the reaction was stopped with the addition of 200 μL of cold methanol. The plate was then centrifuged at 3,200 rpm for 10 minutes at room temperature. Supernatants (200 μL) were collected and transferred to a new 96 well plate for analysis.
An 8 point cGMP (Sigma-Aldrich P/N: G6129) standard curve was prepared in assay buffer ranging from 0.156-20 μM. Samples for the cGMP standard curve were then diluted with an equal volume of methanol resulting in final cGMP concentrations of 0.078-10 μM.
The cGMP standard curve was generated using GraphPad Prism Software.
Calculations: Specific Activity was determined by the amount of cGMP formed (nmoles) per mg of sGC per min. Enzyme “fold-change” was calculated by dividing Specific Activity for test compounds by Specific Activity of DMSO controls.
Enzyme assays were performed as described above, but was done in the presence of 1 μM sodium nitroprusside (SNP).

[3] = molecular target: soluble guanylate cyclase (sGC) (Homo sapiens (Human), UniProt Q02108+Q02153); assay: sGC-HEK-cGMP assay run with SNP incubation (HEK WC assay); assay type: cell-based
Chain of soluble guanylate cyclase (sGC) (Q02153 whole entry): as the sequence (Q02153 whole entry) above
Chain of soluble guanylate cyclase (sGC) (Q02108 whole entry): as the sequence (Q02108 whole entry) above
How it was run: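 HEK293 cells with endogenous sGC were pretreated with 0.5 mM IBMX for 15 min at 37 °C, then exposed to test compound plus sodium nitroprusside for 10 min at 37 °C.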

[4] = read-out: HEK WC Assay (% Emax at 10 uM/with 10 uM SNP)
[5] = read-out: HEK WC Assay (% Emax at 30 uM/with 10 uM SNP)
[6] = read-out: HEK WC Assay (% Emax at 10 μM/with 10 uM SNP)
[7] = read-out: HEK WC Assay (% Emax at 30 μM/with 10 uM SNP)

Row | sGC Enzyme (specific activity at 10 μM) ([1]; 10 μM compound) | sGC Enzyme (fold increase at 10 μM without SNP) ([1]; 10 μM compound) | sGC Enzyme (specific activity at 30 μM) [1] | sGC Enzyme (fold increase at 30 μM without SNP) [1] | sGC Enzyme (fold increase at 10 μM with SNP) ([2]; with 1 μM SNP) | sGC Enzyme (fold increase at 30 μM with SNP) ([2]; with 1 μM SNP) | Emax at 10 µM [3, 4] | Emax at 30 µM [3, 5] | sGC Enzyme (fold increase at 30 μM) ([1]; without the addition of SNP) | sGC Enzyme (fold increase at 30 μM with SNP) ([2]; with the addition of SNP) | Emax at 10 µM [3, 6] | Emax at 30 µM [3, 7] | sGC Enzyme (fold increase at 10 μM) ([1]; 10 μM compound, without the addition of SNP) | sGC Enzyme (fold increase at 10 μM with SNP) ([2]; with the addition of SNP) | Structure (SMILES)
1 | – | A (A = no increase to <2 fold increase) | – | A (A = no increase to <2 fold increase) | A (A = no increase to <2 fold increase) | A (A = no increase to <2 fold increase) | 0 to 10% | 0 to 10% | – | – | – | – | – | – | Cc1ccc(-c2c(C#N)c(-c3ncccn3)nn2Cc2ccccc2F)cc1 [Compound I-69, 1-(2-fluorobenzyl)-3-(pyrimidin-2-yl)-5-p-tolyl-1H-pyrazole-4-carbonitrile]
2 | – | – | – | – | – | – | – | – | A (A = no increase to <2 fold increase) | A (A = no increase to <2 fold increase) | 0 to 10% | 0 to 10% | – | – | Cc1cccc(-c2cc(-c3ncccn3)nn2Cc2ccccc2F)n1 [Compound I-70, 2-(1-(2-fluorobenzyl)-5-(6-methylpyridin-2-yl)-1H-pyrazol-3-yl)pyrimidine]
3 | – | – | – | – | – | – | – | – | A (A = no increase to <2 fold increase) | A (A = no increase to <2 fold increase) | 0 to 10% | 0 to 10% | A (A = no increase to <2 fold increase) | A (A = no increase to <2 fold increase) | Oc1cccc(-c2cc(-c3ccccn3)nn2Cc2ccccc2F)n1 [Compound I-79, 6-(1-(2-fluorobenzyl)-3-(pyridin-2-yl)-1H-pyrazol-5-yl)pyridin-2-ol]
4 | – | – | – | – | – | – | – | – | A (A = no increase to <2 fold increase) | A (A = no increase to <2 fold increase) | 0 to 10% | 0 to 10% | – | – | Cc1cccc(-c2cc(-c3ncccn3)n(Cc3ccccc3F)n2)n1 [Compound I-81, 2-(1-(2-fluorobenzyl)-3-(6-methylpyridin-2-yl)-1H-pyrazol-5-yl)pyrimidine]
5 | – | – | – | – | – | – | – | – | A (A = no increase to <2 fold increase) | A (A = no increase to <2 fold increase) | 0 to 10% | 0 to 10% | – | – | COC(=O)N(C)c1c(N)nc(-c2cc(-c3ccccn3)n(Cc3ccccc3F)n2)nc1N [Compound I-88]
6 | – | – | – | – | – | – | – | – | A (A = no increase to <2 fold increase) | A (A = no increase to <2 fold increase) | 0 to 10% | 0 to 10% | – | – | COC(=O)Nc1c(N)nc(-c2cc(-c3ccccn3)n(Cc3ccccc3F)n2)nc1N [Compound I-89]
7 | – | – | – | – | – | – | – | – | A (A = no increase to <2 fold increase) | B (B = 2 to <5 fold increase) | 0 to 10% | 0 to 10% | – | – | Fc1ccccc1Cn1nc(-c2ncccn2)cc1C1CC1 [Compound I-90]

Further lines, the compound ahead of its results:

Row | Structure (SMILES) | sGC Enzyme (specific activity at 10 μM) ([1]; 10 μM compound) | sGC Enzyme (fold increase at 10 μM without SNP) ([1]; 10 μM compound) | sGC Enzyme (specific activity at 30 μM) [1] | sGC Enzyme (fold increase at 30 μM without SNP) [1] | sGC Enzyme (fold increase at 10 μM with SNP) ([2]; with 1 μM SNP) | sGC Enzyme (fold increase at 30 μM with SNP) ([2]; with 1 μM SNP) | Emax at 10 µM [3, 4] | Emax at 30 µM [3, 5] | sGC Enzyme (fold increase at 30 μM) ([1]; without the addition of SNP) | sGC Enzyme (fold increase at 30 μM with SNP) ([2]; with the addition of SNP) | Emax at 10 µM [3, 6] | Emax at 30 µM [3, 7] | sGC Enzyme (fold increase at 10 μM) ([1]; 10 μM compound, without the addition of SNP) | sGC Enzyme (fold increase at 10 μM with SNP) ([2]; with the addition of SNP)
8 | Cc1ccc(-c2cc(-c3ccccn3)nn2Cc2ccccc2F)nc1 [Compound I-56] | B (B = 50 to <100) | A (A = no increase to <2 fold increase) | B (B = 50 to <100) | A (A = no increase to <2 fold increase) | A (A = no increase to <2 fold increase) | A (A = no increase to <2 fold increase) | 0 to 10% | 0 to 10% | – | – | – | – | – | –
9 | Cc1ccc(-c2cc(-c3ccccn3)n(Cc3ccccc3F)n2)nc1 [Compound I-57] | B (B = 50 to <100) | A (A = no increase to <2 fold increase) | B (B = 50 to <100) | A (A = no increase to <2 fold increase) | A (A = no increase to <2 fold increase) | B (B = 2 to <5 fold increase) | 0 to 10% | 0 to 10% | – | – | – | – | – | –
10 | Cc1ccc(-c2c(Br)c(-c3ncccn3)nn2Cc2ccccc2F)cc1 [Compound I-58] | B (B = 50 to <100) | A (A = no increase to <2 fold increase) | B (B = 50 to <100) | B (B = 2 to <5 fold increase) | B (B = 2 to <5 fold increase) | B (B = 2 to <5 fold increase) | 0 to 10% | 0 to 10% | – | – | – | – | – | –
11 | Fc1ccccc1Cn1nc(-c2ncccn2)cc1-c1ccccc1F [Compound I-59] | B (B = 50 to <100) | B (B = 2 to <5 fold increase) | C (C = 100 to <200) | B (B = 2 to <5 fold increase) | B (B = 2 to <5 fold increase) | C (C = 5 to <10 fold increase) | 0 to 10% | 0 to 10% | – | – | – | – | – | –
12 | COc1ccc(-c2cc(-c3ncccn3)nn2Cc2ccccc2F)cc1 [Compound I-60] | B (B = 50 to <100) | A (A = no increase to <2 fold increase) | C (C = 100 to <200) | B (B = 2 to <5 fold increase) | A (A = no increase to <2 fold increase) | A (A = no increase to <2 fold increase) | 0 to 10% | 0 to 10% | – | – | – | – | – | –
13 | Fc1ccccc1Cn1nc(-c2ccccn2)c(Br)c1-c1ccccn1 [Compound I-62] | B (B = 50 to <100) | A (A = no increase to <2 fold increase) | B (B = 50 to <100) | A (A = no increase to <2 fold increase) | A (A = no increase to <2 fold increase) | A (A = no increase to <2 fold increase) | 0 to 10% | 0 to 10% | – | – | – | – | – | –
14 | Fc1ccccc1Cn1nc(-c2ccccn2)c(Cl)c1-c1ccccn1 [Compound I-63] | B (B = 50 to <100) | A (A = no increase to <2 fold increase) | B (B = 50 to <100) | A (A = no increase to <2 fold increase) | A (A = no increase to <2 fold increase) | A (A = no increase to <2 fold increase) | 0 to 10% | 0 to 10% | – | – | – | – | – | –
15 | Fc1ccccc1Cn1nc(-c2ccccn2)c(Br)c1C1CCC1 [Compound I-64] | A (A = 0 to <50) | A (A = no increase to <2 fold increase) | B (B = 50 to <100) | A (A = no increase to <2 fold increase) | A (A = no increase to <2 fold increase) | B (B = 2 to <5 fold increase) | 0 to 10% | 0 to 10% | – | – | – | – | – | –
16 | Cc1ccc(-c2cc(-c3ncccn3)nn2Cc2ccccc2F)cc1 [Compound I-65] | B (B = 50 to <100) | B (B = 2 to <5 fold increase) | C (C = 100 to <200) | B (B = 2 to <5 fold increase) | B (B = 2 to <5 fold increase) | C (C = 5 to <10 fold increase) | 0 to 10% | 0 to 10% | – | – | – | – | – | –
17 | Cc1ccc(-c2c(Br)c(-c3ccccn3)nn2Cc2ccccc2F)cc1 [Compound I-67] | C (C = 100 to <200) | A (A = no increase to <2 fold increase) | D (D = 200 to <500) | A (A = no increase to <2 fold increase) | A (A = no increase to <2 fold increase) | A (A = no increase to <2 fold increase) | 0 to 10% | 0 to 10% | – | – | – | – | – | –
